Results published in US10774390B2, “Methods and compositions for modulating PrfA mediated virulence gene activation in Listeria spp” (The Regents of the University of California, priority 2015, dated 2020).

What was measured:
PrfA = PrfA activation in L. monocytogenes strains expressing TagRFP from the actA promoter, grown in media with or without reducing agents; format: cell-based, Listeria monocytogenes; settings: for induction of ActA (FIG. 1): chemically defined media, fluorescent reporter driven by actA promoter; for Optimal concentration for prfA activation: reducing agent added to chemically defined media (Table 1); for activation of PrfA in vitro: L. monocytogenes grown in chemically defined media, excess of exogenously added reducing agent
Experimental: Experiments were conducted to identify any additional factors required for PrfA activation.
Three different strains were employed: WT 10403S (Lauer et al., J. Bacteriol. (2002) 184:4177-4186; ΔprfA which was an in frame deletion in prfA made by allelic exchange; and PrfA* which has a G145S mutation. The strains were engineered to express TagRFP from the actA promoter (e.g., as reported in Waite et al., PLoS Pathog. (2011)7:e1001326. A chemically defined media detailed in Table 1 was prepared.
Next, a number of reducing agents listed in Table 2 were added to the media.
The three strains were grown in the chemically defined media with or without the addition of the noted reducing agents.

Listeria monocytogenes = assay: Virulence of strains grown with or without reducing agent: bacterial burdens in organs of intravenously infected mice; format: in vivo, CD-1 mice
Experimental: FIG. 2. In this experiment bacteria were grown in rich media (BHI) or Listeria synthetic media (LSM) with or without reducing agent (TCEP) and injected into mice IV. The data are CFUs at […] in liver and spleens. WT bacteria and a PrfA* strain that has constitutively active PrfA were used.
Prior to infection, bacterial strains were grown to stationary phase overnight in Listeria Synthetic Media (LSM) at 37° C., then diluted into either BHI or LSM, with or without reducing agent (2 mM TCEP) and grown at 37° C. with shaking until the OD600 was approximately 0.5. Cultures were re-suspended in 1× phosphate-buffered saline (PBS) and used to intravenously infect female CD-1 mice between 6 and 8 weeks of age with a final inoculum of 10^5 bacteria. At 48 hrs post-infection, mice were sacrificed and organs collected. Bacterial burdens were enumerated by plating organ homogenates on LB plates and incubating overnight.
WT bacteria and a PrfA* strain that has constitutively active PrfA were used.

| Structure (SMILES) | induction of ActA (FIG. 1) (PrfA) | Optimal concentration for prfA activation (PrfA) [mM] | activation of PrfA in vitro (PrfA) | bacteria in the organs (CFU, liver and spleen), fold more (Listeria monocytogenes; bacteria grown in LSM plus 2 mM TCEP, IV, 10^5 bacteria, 48 hrs post-infection) | activation of PrfA-dependent expression, measured by virulence (Listeria monocytogenes; defined medium and TCEP, compared with PrfA* strain) | PrfA activation (PrfA; exogenous glutathione, standard complex broth culture) |
| --- | --- | --- | --- | --- | --- | --- |
| N[C@@H](CS)C(=O)O [L-Cysteine] | induction of ActA | 10 |  |  |  |  |
| OCCS [2-mercaptoethanol (BME), 2-mercaptoethanol] |  | 2 | recapitulated |  |  |  |
| O[C@H](CS)[C@H](O)CS (racemic) [dithiothreitol (DTT), dithiothreitol] |  | 2 | recapitulated |  |  |  |
| O=C(O)CCP(CCC(=O)O)CCC(=O)O [tris(2-carboxyethyl)phosphine (TCEP), tris(2-carboxyethyl)phosphine] | induction of ActA | 2 | recapitulated | around 50 fold | equivalent to that of a PrfA-constituitive mutant |  |
| N[C@@H](CCC(=O)N[C@@H](CS)C(=O)NCC(=O)O)C(=O)O [Glutathione (reduced), Glutathione] | induction of ActA | 10 | sufficient to stimulate activation of PrfA |  |  | insufficient to stimulate PrfA activation |
